Measurements: paper PMC12447391 (2025)

Assays:
[1] = system: TESS.1_trimmed in Apta-gel (DNA, aptamer) ACGGGATGTCCGGGGTACGGTGGTTGCAGTTCGTTTTTTTCCGATTACAGCC; experiment: OECT transient response, equilibrium titration; conditions: PBS, immobilised aptamer
[2] = system: Ref in Apta-gel (DNA, aptamer) CGACCGGTCTGGGGACCCTGTCTGGGTGTGTGGGTAGTAGGTCGTTTTTTCCGATTACAGCC; experiment: nonfaradic EIS of Apta-gel; conditions: PBS; effective capacitance rises at 21 °C, falls at 35 °C
[3] = system: R5MPT (DNA, aptamer) CGGGCGACGGGGATTTTTGGTGCACTATGTGGTTCGTTCGGGGTGGGCTGCGTTCTCCATTCTGGTTTTTTCCGATTACAGCC; experiment: CD; conditions: PBS, 25 °C; 1 μM aptamer, 1 μM cortisol; peaks shift
[4] = system: R5MPT in Apta-gel (DNA, aptamer) CGGGCGACGGGGATTTTTGGTGCACTATGTGGTTCGTTCGGGGTGGGCTGCGTTCTCCATTCTGGTTTTTTCCGATTACAGCC; experiment: OECT flow-cell kinetics (koff/kon); conditions: PBS, 25 °C; apparent; kon 201.4 M^-1 s^-1, koff 0.0067 s^-1; immobilised aptamer
[5] = system: Ref (DNA, aptamer) CGACCGGTCTGGGGACCCTGTCTGGGTGTGTGGGTAGTAGGTCGTTTTTTCCGATTACAGCC; experiment: ITC; conditions: PBS, 25 °C
[6] = system: Ref in Apta-gel (DNA, aptamer) CGACCGGTCTGGGGACCCTGTCTGGGTGTGTGGGTAGTAGGTCGTTTTTTCCGATTACAGCC; experiment: OECT transient response, equilibrium titration; conditions: PBS, 21 °C; apparent; immobilised aptamer
[7] = system: R5MPT (DNA, aptamer) CGGGCGACGGGGATTTTTGGTGCACTATGTGGTTCGTTCGGGGTGGGCTGCGTTCTCCATTCTGGTTTTTTCCGATTACAGCC; experiment: ITC; conditions: PBS, 25 °C

Row | KD, apparent [1] | binding [2] | binding [3] | KD [4] | KD [5] | KD [6] | KD [7] | SMILES
1 | 0.303 µM | – | – | – | – | – | – | C[C@]12CC[C@H]3[C@@H](CCC4=CC(=O)CC[C@@]43C)[C@@H]1CC[C@@H]2O
2 | – | yes | yes | 33 µM | 3.75 µM | 45.95 µM | 10.2 µM | C[C@]12CCC(=O)C=C1CC[C@@H]1[C@@H]2[C@@H](O)C[C@@]2(C)[C@H]1CC[C@]2(O)C(=O)CO
